What is called IC50 is the point on the concentration scale where inhibition reaches its midpoint.

The text below walks through data of patent US7439063B2, “Neuroprotective synergy of erythropoietin and insulin-like growth factors” (Burnham Institute for Medical Research, priority 2002, dated 2008).

Read-outs that look alike come from different tables or passages of the source.

The target of one data set is T1, erythropoietin receptor (Homo sapiens, UniProt P19235).
T1 sequence (P19235 25-249 limits assumed): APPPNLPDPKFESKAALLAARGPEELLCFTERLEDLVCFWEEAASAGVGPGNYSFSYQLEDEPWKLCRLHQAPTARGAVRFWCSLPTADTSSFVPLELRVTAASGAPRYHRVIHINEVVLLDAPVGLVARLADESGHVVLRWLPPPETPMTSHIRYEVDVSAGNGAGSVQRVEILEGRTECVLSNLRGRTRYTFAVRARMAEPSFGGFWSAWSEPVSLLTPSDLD
The following applies: known erythropoietin mimetic peptides; cited from earlier work.

Another data set concerns cerebrocortical neurons. The note with it: 6, 12, 16 and 48 hours after NMDA exposure; mixed neuronal-glial cultures.
Data set [1] concerns active caspase-3/XIAP complex. Description: XIAP associated with active caspase-3 (immunoprecipitation, densitometry). The class given is cell-based, rat. The following applies: NMDA exposure alone. The method, then:
In mixed cerebrocortical cultures, EPO is known to induce expression of XIAP and c-IAP, two related factors capable of inhibiting caspase-3 proteolytic activity (Digicaylioglu and Lipton, supra, 2001; and Holcik and Korneluk, Nat. Rev. Mol. Cell. Biol. 2:550-556 (2001)). Here, cerebrocortical cultures were analyzed for the effect of combined EPO and IGF-I treatment on association of XIAP and active caspase-3. Cultures were incubated with EPO, IGF-I and NMDA and, after immunoprecipitation of the active form of caspase-3, immunoprecipitates were probed for the presence of XIAP using western blotting.
To perform these experiments, cerebrocortical cultures were exposed to NMDA, or EPO and IGF-I, or concurrently exposed to NMDA and EPO/IGF-I as described above. Immunoprecipitation of culture lysates was performed using precleared whole-cell lysates, incubated with a 1:100 dilution of antibody specifically recognizing the cleaved form of caspase-3 (Cell Signaling Technologies) for one hour at room temperature, followed by addition of protein A/G-Sepharose beads and immunoprecipitation as described above. The immunoprecipitates were separated by electrophoresis and transferred to a nitrocellulose membrane, which was blotted with a 1:200 dilution of anti-XIAP antibody (Trevigen; Gaithersburg, Md.).

In a further data set the test system is caspase-3. Description: Caspase-3 (DEVD) cleavage assay in culture lysates. Format: cell-based, rat. The note with it: lysates 16 hours after NMDA exposure; simultaneous application or 3 hour preincubation. The method, then:
To study the effect of combined EPO/IGF-I treatment on proteolytic activity of caspase-3, protein lysates were prepared from cerebrocortical cultures 16 hours after NMDA exposure, and caspase-3 activity was assayed using the fluorescent caspase-3 substrate, DEVD-7-amino-4-trifluoromethyl-coumarin (DEVD-AFC).
Caspase-3 (DEVD) cleavage assays were performed as described previously. Briefly, cerebrocortical cultures were lysed in cold buffer containing 10% sucrose, 0.1% CHAPS, 100 mM HEPES (pH 7.5), and 10 mM dithiothreitol (DTT). Cytoplasmic protein extracts (200 μg) were incubated for 30 minutes at 37° C. with 80 μM caspase-3 peptide substrate DEVD-AFC (Enzyme Systems Products; Livermore, Calif.). Free fluorescent AFC released by caspase-3 activity was measured on a FluoroMax2 fluorometer at 400 nm excitation and 505 nm emission.

For data set [2], the system named is rat primary cerebrocortical cultures. As to the method:
The neuroprotective effects of concurrent EPO and IGF-I administration were compared to individual treatment with EPO or IGF-I in rat primary cerebrocortical cultures.
Neuronal apoptosis was quantified by double labeling for TUNEL reactivity, which in conjunction with condensed morphology is indicative of apoptosis, and the neuron-specific protein microtubule associated protein-2 (MAP2) 16 hours after NMDA insult.
For these experiments, mixed neuronal/glial cerebrocortical cultures were prepared as described previously (Bonfoco et al., supra, 1995); Lei et al., Neuron 8:1087-1099 (1992); and Lipton et al., Nature 364:626-632 (1993)). In brief, cortical tissue from embryonic day 16 Sprague-Dawley rats was dissociated in 0.5% trypsin and plated on poly-L-lysine coated glass coverslips at a density of 10^5 cells per 35 mm culture dish in serum-containing medium. Prior to experimental use, cerebrocortical neurons were kept at 37° C. and 5% CO2 for at least 17 days to permit full expression of NMDA receptors (Lei et al., supra, 1992; and Lipton et al., supra, 1993).
EPO and IGF-I incubations were performed essentially as follows. Human recombinant EPO purchased from Amgen (Epoietin alfa, 2000 IU/ml) was diluted in cell culture medium to a final concentration of 5-10 U/ml. Insulin-like growth factor-I (IGF-I) (Calbiochem; La Jolla, Calif.) was diluted in cell culture medium to a final concentration of 50-100 ng/ml.
NMDA incubations were performed as follows. Cerebrocortical cultures were exposed to 200 μM NMDA in nominally Mg^2+-free Earle's Balanced Salt Solution (EBSS), containing 1.8 mM CaCl2 and 5 μM glycine for 20 minutes. After NMDA exposure, cultures were washed with EBSS and then placed in conditioned tissue culture medium filtered with a […] Acrodisk filter (Perkin-Elmer; Wellesley, Mass.) to remove activated microglia. Where indicated, EPO, IGF-I or both EPO and IGF-I were added to the conditioned media.
Detection of apoptotic neurons was performed essentially as follows. After experimental incubation, cerebrocortical cultures were fixed in PBS (150 mM NaCl, 1.7 mM monobasic sodium phosphate, 9.1 mM dibasic sodium phosphate) with 4% paraformaldehyde, and permeabilized in PBS containing 1% Tween-20. Apoptotic cells were identified by condensed morphology in conjunction with TUNEL using the Apoptosis Detection System (Promega; Madison, Wis.). […]
For PI3-kinase inhibition, cultures were prepared and incubated with NMDA alone, or with EPO or IGF-I individually, or EPO in combination with IGF-I, as described above. […] Neuronal apoptosis was assessed 16 hours after NMDA application by determining the percentage of MAP2-positive cells that were also TUNEL positive, as described above.

Another data set deals with Akt. In words: Akt phosphorylation on serine-473 (immunoblot). Format: cell-based, rat. In general terms: In western blotting, separated proteins are transferred to a membrane and probed.
The conditions of data set [3]: naturally occurring peptide; cited from earlier work.
Data set [4] in a line: brain delivery of intranasally applied radiolabeled EPO (autoradiography). Format: in vivo. The source says: As disclosed herein, EPO or an active fragment or analog thereof can cross the blood-brain barrier following intranasal administration, whereby unwanted systemic effects such as increased hematocrit can be avoided.
Data set [5] concerns focal cerebral ischemic damage. The following applies: administered intranasally; cited from earlier work.
In data set [6] the test system is p85 subunit of PI3-kinase. Description: phosphorylation of the p85 subunit of PI3-kinase (immunoblot). The class given is cell-based, rat. The following applies: IGF-I: maximal phosphorylation; EPO: phosphorylation observed; treated 10, 20 or 30 minutes. The method, then: PI3-kinase is activated by phosphorylation of a p85 regulatory subunit, which leads to release of the catalytic subunit (Pleiman et al., Science 263:1609-1612 (1994)). To determine if EPO or IGF-I induces phosphorylation of the p85 subunit of PI3-kinase, rat cerebrocortical cultures were treated with EPO or IGF-I for 10, 20 or 30 minutes, and protein lysates from these cultures analyzed by immunoblotting for the presence of phospho-p85. As shown in FIG. 5B (upper and lower panels), both factors induced p85 phosphorylation in a time-dependent manner. […] Equal protein loading was confirmed by analyzing the amounts of total p85 with a second antibody.
Preparation of total cell extracts for immunoblotting or immunoprecipitation was performed essentially as follows. Cultures were washed briefly in cold PBS. After addition of ice cold lysis buffer (50 mM Tris-Cl, 150 mM NaCl, 1.1 mM PMSF, 10 μg/ml Aprotinin, 1% Triton X-100, pH 8.0, 2 mM Ortho-Vanadate, 0.1% deoxycholate), cells were scraped off the culture dishes. Lysates were transferred to a microcentrifuge tube, vortexed for 15 seconds at 4° C., and cleared by centrifugation for 20 minutes at 14,000×g at […]. Protein concentrations were determined using a BCAProtein assay kit (Pierce; Rockford, Ill.).
Immunoblotting was performed as follows. […]

Protocol for cerebrocortical neurons: The total number of viable MAP2 positive cells was assayed to avoid the effects of secondary necrosis seen at longer survival times (Bonfoco et al., supra, 1995).
Neuronal survival was assayed as the total number of MAP2 positive cells to avoid the confounding effects of secondary necrosis, which can occur at later time points and obfuscate the number of apoptotic cells (Bonfoco et al., supra, 1995).

For GGCRIGPITWVCGG [AF11154], at erythropoietin receptor, the IC50 is 10000 nM.

Regarding VGNYMCHFGPITWVCRPGGG [EMP4], the IC50 at erythropoietin receptor is 500 nM.

As to GGVYACRMGPITWVCSPLGC [EMP3], the IC50 on erythropoietin receptor was 300 nM.

Regarding GGLYLCRFGPVTWDCGYKGG [EMP5], the IC50 at erythropoietin receptor was 1000 nM.

Take `CN[C@H](CC(=O)O)C(=O)O` [NMDA, N-methyl-D-aspartate]: the “number of surviving neurons in mixed cultures” value with cerebrocortical neurons is reported as “dramatic decrease in the number of surviving neurons”. In data set [1], the “amount of XIAP associated with active caspase-3, NMDA alone” value is “modest increase”. In the data set on caspase-3, the “caspase-3-like activity (DEVD cleavage)” value is given as “increased DEVD cleavage”. In data set [2] (200 μM NMDA for 20 minutes alone, 16 hours after NMDA insult), the “apoptotic appearance and TUNEL reactivity, % of MAP2-labeled neurons” value is given as 76+7%. The “constitutive levels of Akt phosphorylation” value with Akt (20-minute exposure to NMDA) is “reduced constitutive levels of Akt phosphorylation”.

For GGDYHCRMGPLTWVCKPLGG [EMP2], at erythropoietin receptor, the IC50 was 200 nM.

As to “IGF-II: naturally occurring, relatively neutral peptide with 60% amino acid homology to native IGF-I”, in data set [3], the pI is 6.4.

Take “radiolabeled EPO: intranasally applied radiolabeled erythropoietin”: the “distribution after intranasal application” value in data set [4] is “migrated into olfactory tissue and was observed in the rostral migratory stream”; in [4] (listed as radiolabeled erythropoietin), “accumulated in brain tissue”.

For GGTYSCHFGPLTWVCKPQGO [EMP1], in the data set with erythropoietin receptor, the IC50 is 200 nM.

“IGF-I: Insulin-like growth factor-I (Calbiochem), also known as somatomedin C, a hormone of 70 amino acids”: the “protection against focal cerebral ischemic damage” value in data set [5] is “can protect against focal cerebral ischemic damage”. In data set [2] (factor applied individually at the time of NMDA insult), the “cell death, treatment at the time of NMDA insult” value is reported as “did not significantly reduce cell death”. Further, in [2] (in the absence of NMDA exposure), the “neuronal viability in control incubations” value is “did not affect neuronal viability”. In [2] (preincubation for three hours before NMDA, EPO 10 U/ml, IGF-I 100 ng/ml), the “neuronal apoptosis after preincubation” value is “significantly attenuated neuronal apoptosis”. Besides, the pI in [3] was 8.4. Further, in the data set on Akt (three hour incubation), the “phospho-serine-473 Akt” value was “moderate Akt activation”. For the same molecule, in [6], the “time to phosphorylation of p85 subunit of PI3-kinase” value worked out at 10 min.
